Reference: patent publication US11814367B2, “Inhibitors of glycogen synthase 1 (GYS1) and methods of use thereof” (Maze Therapeutics, Inc., priority 2021, dated 2023)
pIC50: −log10 of the molar value.

Experiments:
[1] = target: hGYS2 enzyme (recombinant hGYS2/GN1 protein) (Homo sapiens (Human), UniProt P54840); assay: GYS2 coupled enzyme assay (PK/LDH); type: biochemical; details: geometric mean of at least 2 assay runs on separate days, read-out: Avg_IC50
Outline: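 Recombinant hGYS2/GN1 (200 nM) with 2 mM UDP-glucose, 0.2% rabbit liver glycogen, 2 mM glucose-6-phosphate; UDP coupled via PK/LDH (2 mM PEP, 0.6 mM NADH). Buffer 50 mM Tris pH 7.5, 2 mM MgCl2, 100 mM KCl, 2.5% DMSO. A340 slope over 10 min; IC50 from Hill fit of duplicates.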

[2] = target: hGYS1 enzyme (recombinant hGYS1/GN1 protein) (Homo sapiens (Human), UniProt P13807); assay: GYS1 coupled enzyme assay (PK/LDH); type: biochemical; details: hGYS1/GN1 50 nM, UDP-Glucose 0.8 mM, G6P 1 mM; geometric mean of at least 2 runs
Sequence of hGYS1 enzyme (recombinant hGYS1/GN1 protein) (P13807 whole entry): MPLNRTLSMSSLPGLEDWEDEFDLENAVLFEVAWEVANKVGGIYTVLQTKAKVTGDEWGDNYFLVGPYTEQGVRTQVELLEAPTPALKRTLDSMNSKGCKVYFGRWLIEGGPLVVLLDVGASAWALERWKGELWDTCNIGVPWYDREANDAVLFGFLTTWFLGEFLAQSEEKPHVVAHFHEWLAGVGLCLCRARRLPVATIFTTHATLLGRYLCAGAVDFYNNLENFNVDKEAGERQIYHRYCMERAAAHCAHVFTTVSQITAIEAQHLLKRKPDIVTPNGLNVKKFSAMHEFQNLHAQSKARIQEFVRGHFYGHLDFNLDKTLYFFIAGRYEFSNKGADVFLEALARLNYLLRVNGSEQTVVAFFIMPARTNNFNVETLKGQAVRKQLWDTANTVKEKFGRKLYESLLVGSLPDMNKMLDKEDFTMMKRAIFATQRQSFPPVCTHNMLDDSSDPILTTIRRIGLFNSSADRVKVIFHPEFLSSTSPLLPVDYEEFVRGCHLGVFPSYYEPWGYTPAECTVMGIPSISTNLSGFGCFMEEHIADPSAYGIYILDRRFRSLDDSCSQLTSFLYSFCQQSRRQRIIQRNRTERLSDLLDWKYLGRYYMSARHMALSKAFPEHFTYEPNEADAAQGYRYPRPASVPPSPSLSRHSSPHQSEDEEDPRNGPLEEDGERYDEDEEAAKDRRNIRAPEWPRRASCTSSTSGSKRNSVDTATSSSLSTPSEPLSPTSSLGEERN
Sequence of hGYS1 enzyme (recombinant hGYS1/GN1 protein) (P46976 whole entry partner): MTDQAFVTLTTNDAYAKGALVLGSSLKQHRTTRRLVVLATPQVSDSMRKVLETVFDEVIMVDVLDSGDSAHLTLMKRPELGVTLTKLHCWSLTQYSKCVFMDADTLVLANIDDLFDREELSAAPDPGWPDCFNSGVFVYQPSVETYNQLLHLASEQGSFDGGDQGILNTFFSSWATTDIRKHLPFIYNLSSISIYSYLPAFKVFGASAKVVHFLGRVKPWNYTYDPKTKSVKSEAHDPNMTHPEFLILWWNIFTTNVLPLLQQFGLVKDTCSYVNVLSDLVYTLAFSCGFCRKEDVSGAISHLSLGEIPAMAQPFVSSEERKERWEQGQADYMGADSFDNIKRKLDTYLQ

[3] = system: hGYS1 enzyme / glycogen synthesis in HeLa cells; assay: GYS1 cell based assay (glycogen synthesis, Glucose-glo); design: species or system human; details: Homo sapiens, HeLa, 24 h, 24 h incubation, 20 mM glucose, geometric mean of at least 2 runs
Outline: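 HeLa cells starved 24 h in medium containing only 1× Glutamax were plated onto compound in medium with 20 mM glucose (1% DMSO final) for 24 h, 37 °C, 5% CO2. Acid lysates were Tris-quenched, glucoamylase-digested (pH 5.3, 1 h, 37 °C) and read by Glucose-glo luminescence. IC50 came from Hill fits, as geometric mean of ≥2 runs.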

Sequence of hGYS2 enzyme (recombinant hGYS2/GN1 protein) (P54840 whole entry): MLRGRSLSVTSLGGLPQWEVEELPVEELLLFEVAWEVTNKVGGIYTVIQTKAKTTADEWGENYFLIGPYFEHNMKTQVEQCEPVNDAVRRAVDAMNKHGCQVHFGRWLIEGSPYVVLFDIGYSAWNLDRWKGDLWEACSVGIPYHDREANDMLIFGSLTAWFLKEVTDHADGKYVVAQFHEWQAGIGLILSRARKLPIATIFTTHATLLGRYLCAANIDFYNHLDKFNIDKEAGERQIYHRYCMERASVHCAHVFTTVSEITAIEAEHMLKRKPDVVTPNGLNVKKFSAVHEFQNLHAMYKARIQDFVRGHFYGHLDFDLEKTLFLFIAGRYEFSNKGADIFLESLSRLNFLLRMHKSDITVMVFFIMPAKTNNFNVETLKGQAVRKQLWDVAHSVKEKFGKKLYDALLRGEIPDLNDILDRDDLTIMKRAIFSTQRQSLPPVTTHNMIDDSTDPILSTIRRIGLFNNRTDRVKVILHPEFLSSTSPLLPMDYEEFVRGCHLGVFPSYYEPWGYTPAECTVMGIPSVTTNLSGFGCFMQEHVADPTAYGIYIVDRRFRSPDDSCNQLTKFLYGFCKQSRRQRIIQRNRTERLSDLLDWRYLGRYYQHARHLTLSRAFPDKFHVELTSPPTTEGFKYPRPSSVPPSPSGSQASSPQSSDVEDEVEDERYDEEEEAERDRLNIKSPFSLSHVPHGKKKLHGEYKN
Sequence of hGYS2 enzyme (recombinant hGYS2/GN1 protein) (P46976 whole entry partner): as the sequence (P46976 whole entry partner) above

O=C(N[C@@H](c1ccccc1)c1ccc(C2CC(F)(F)C2)c(F)c1)[C@@H]1C[C@@H](F)CN1C(=O)Cc1cnn[nH]1 [Compound 546, (2S,4R)-N-[(S)-[4-(3,3-difluorocyclobutyl)-3-fluorophenyl](phenyl)methyl]-4-fluoro-1-[2-(1H-1,2,3-triazol-5-yl)acetyl]pyrrolidine-2-carboxamide]
pIC50 [1]: < 4.00
pIC50 [2]: 7.57
pIC50 [3]: 6.29

CN(C)C(=O)NCC(=O)N1C[C@H](F)C[C@H]1C(=O)N[C@@H](c1ccccc1)c1ccc(C2CC(F)(F)C2)c(F)c1 [Compound 547, (2S,4R)-N-[(S)-[4-(3,3-difluorocyclobutyl)-3-fluorophenyl](phenyl)methyl]-1-{2-[(dimethylcarbamoyl)amino]acetyl}-4-fluoropyrrolidine-2-carboxamide]
pIC50 [1]: < 4.00
pIC50 [2]: 7.80
pIC50 [3]: 6.44

CN(C)C(=O)NCC(=O)N1C[C@H](F)C[C@H]1C(=O)N[C@H](c1ccccc1)c1ccc(C2CC(F)(F)C2)c(F)c1 [Compound 548, (2S,4R)-N-[(R)-[4-(3,3-difluorocyclobutyl)-3-fluorophenyl](phenyl)methyl]-1-{2-[(dimethylcarbamoyl)amino]acetyl}-4-fluoropyrrolidine-2-carboxamide]
pIC50 [1]: < 4.00
pIC50 [2]: 6.48
pIC50 [3]: 5.24

O=C(N[C@@H](c1ccccc1)c1ccc(C2CC(F)(F)C2)c(F)c1)[C@@H]1C[C@@H](F)CN1C(=O)Cn1cnc2ccccc21 [Compound 549, (2S,4R)-1-[2-(1H-1,3-benzodiazol-1-yl)acetyl]-N-[(S)-[4-(3,3-difluorocyclobutyl)-3-fluorophenyl](phenyl)methyl]-4-fluoropyrrolidine-2-carboxamide]
pIC50 [1]: < 4.00
pIC50 [2]: 8.22
pIC50 [3]: 6.92

Cc1cnc(CC(=O)N2C[C@H](F)C[C@H]2C(=O)N[C@@H](c2ccccc2)c2ccc(C3CC(F)(F)C3)c(F)c2)o1 [Compound 550, (2S,4R)-N-[(S)-[4-(3,3-difluorocyclobutyl)-3-fluorophenyl](phenyl)methyl]-4-fluoro-1-[2-(5-methyl-1,3-oxazol-2-yl)acetyl]pyrrolidine-2-carboxamide]
pIC50 [1]: < 4.00
pIC50 [2]: 7.38
pIC50 [3]: 6.19

Cc1cn(CC(=O)N2C[C@H](F)C[C@H]2C(=O)N[C@@H](c2ccccc2)c2ccc(C3CC(F)(F)C3)c(F)c2)c(=O)[nH]c1=O [Compound 551, (2S,4R)-N-[(S)-[4-(3,3-difluorocyclobutyl)-3-fluorophenyl](phenyl)methyl]-4-fluoro-1-[2-(5-methyl-2,4-dioxo-1,2,3,4-tetrahydropyrimidin-1-yl)acetyl]pyrrolidine-2-carboxamide]
pIC50 [1]: < 4.00
pIC50 [2]: 8.15
pIC50 [3]: 6.68

O=C(N[C@@H](c1ccccc1)c1ccc(C2CC(F)(F)C2)c(F)c1)[C@@H]1C[C@@H](F)CN1C(=O)Cc1ncco1 [Compound 552, (2S,4R)-N-[(S)-[4-(3,3-difluorocyclobutyl)-3-fluorophenyl](phenyl)methyl]-4-fluoro-1-[2-(1,3-oxazol-2-yl)acetyl]pyrrolidine-2-carboxamide]
pIC50 [1]: < 4.00
pIC50 [2]: 7.09
pIC50 [3]: 5.95

O=C(N[C@@H](c1ccccc1)c1ccc(C2CC(F)(F)C2)c(F)c1)[C@@H]1C[C@@H](F)CN1C(=O)Cc1[nH]nnc1C(F)(F)F [Compound 553, (2S,4R)-N-[(S)-[4-(3,3-difluorocyclobutyl)-3-fluorophenyl](phenyl)methyl]-4-fluoro-1-{2-[4-(trifluoromethyl)-1H-1,2,3-triazol-5-yl]acetyl}pyrrolidine-2-carboxamide]
pIC50 [1]: < 4.00
pIC50 [2]: 8.10
pIC50 [3]: 6.40

Cc1coc(CC(=O)N2C[C@H](F)C[C@H]2C(=O)N[C@@H](c2ccccc2)c2ccc(C3CC(F)(F)C3)c(F)c2)n1 [Compound 554, (2S,4R)-N-[(S)-[4-(3,3-difluorocyclobutyl)-3-fluorophenyl](phenyl)methyl]-4-fluoro-1-[2-(4-methyl-1,3-oxazol-2-yl)acetyl]pyrrolidine-2-carboxamide]
pIC50 [1]: < 4.00
pIC50 [2]: 7.47
pIC50 [3]: 6.42

Cc1cn(CC(=O)N2C[C@H](F)C[C@H]2C(=O)N[C@@H](c2ccccc2)c2ccc(C3(C)CC3)c(F)c2)c(=O)[nH]c1=O [Compound 556, (2S,4R)-4-fluoro-N—((S)-(3-fluoro-4-(1-methylcyclopropyl)phenyl)(phenyl)methyl)-1-(2-(5-methyl-2,4-dioxo-3,4-dihydropyrimidin-1(2H)-yl)acetyl)pyrrolidine-2-carboxamide]
pIC50 [1]: < 4.00
pIC50 [2]: 7.57
pIC50 [3]: 6.12

CC1(c2ccc([C@@H](NC(=O)[C@@H]3C[C@@H](F)CN3C(=O)Cc3cnn[nH]3)c3ccccc3)cc2F)CC1 [Compound 558, (2S,4R)-4-fluoro-N-[(S)-[3-fluoro-4-(1-methylcyclopropyl)phenyl](phenyl)methyl]-1-[2-(1H-1,2,3-triazol-5-yl)acetyl]pyrrolidine-2-carboxamide]
pIC50 [1]: < 4.00
pIC50 [2]: 6.87
pIC50 [3]: 5.61

CC1(c2ccc([C@@H](NC(=O)[C@@H]3C[C@@H](F)CN3C(=O)COC(=O)N3CCC3)c3ccccc3)cc2F)CC1 [Compound 560, 2-[(2S,4R)-4-fluoro-2-{[(S)-[3-fluoro-4-(1-methylcyclopropyl)phenyl](phenyl)methyl]carbamoyl}pyrrolidin-1-yl]-2-oxoethyl azetidine-1-carboxylate]
pIC50 [1]: < 4.00
pIC50 [2]: 6.84
pIC50 [3]: 5.74

Cn1c(CC(=O)N2C[C@H](F)C[C@H]2C(=O)N[C@@H](c2ccccc2)c2ccc(C3(C)CC3)c(F)c2)cc2ccccc21 [Compound 561, (2S,4R)-4-fluoro-N-[(S)-[3-fluoro-4-(1-methylcyclopropyl)phenyl](phenyl)methyl]-1-[2-(1-methyl-1H-indol-2-yl)acetyl]pyrrolidine-2-carboxamide]
pIC50 [1]: < 4.00
pIC50 [2]: 7.44
pIC50 [3]: 6.06

CC1(c2ccc([C@@H](NC(=O)[C@@H]3C[C@@H](F)CN3C(=O)CN3CCNCC3=O)c3ccccc3)cc2F)CC1 [Compound 562, (2S,4R)-4-fluoro-N-[(S)-[3-fluoro-4-(1-methylcyclopropyl)phenyl](phenyl)methyl]-1-[2-(2-oxopiperazin-1-yl)acetyl]pyrrolidine-2-carboxamide]
pIC50 [1]: < 4.00
pIC50 [2]: 6.16
pIC50 [3]: 5.15

Cn1cc(CC(=O)N2C[C@H](F)C[C@H]2C(=O)N[C@@H](c2ccccc2)c2ccc(C3(C)CC3)c(F)c2)c2ccccc21 [Compound 563, (2S,4R)-4-fluoro-N-[(S)-[3-fluoro-4-(1-methylcyclopropyl)phenyl](phenyl)methyl]-1-[2-(1-methyl-1H-indol-3-yl)acetyl]pyrrolidine-2-carboxamide]
pIC50 [1]: < 4.00
pIC50 [2]: 7.20
pIC50 [3]: 6.11

Cn1nc(CC(=O)N2C[C@H](F)C[C@H]2C(=O)N[C@@H](c2ccccc2)c2ccc(C3(C)CC3)c(F)c2)c2ccccc21 [Compound 564, (2S,4R)-4-fluoro-N-[(S)-[3-fluoro-4-(1-methylcyclopropyl)phenyl](phenyl)methyl]-1-[2-(1-methyl-1H-indazol-3-yl)acetyl]pyrrolidine-2-carboxamide]
pIC50 [1]: < 4.00
pIC50 [2]: 7.25
pIC50 [3]: 6.10

CC1(c2ccc([C@@H](NC(=O)[C@@H]3C[C@@H](F)CN3C(=O)CNC(=O)N3CCOCC3)c3ccccc3)cc2F)CC1 [Compound 565, N-{2-[(2S,4R)-4-fluoro-2-{[(S)-[3-fluoro-4-(1-methylcyclopropyl)phenyl](phenyl)methyl]carbamoyl}pyrrolidin-1-yl]-2-oxoethyl}morpholine-4-carboxamide]
pIC50 [1]: < 4.00
pIC50 [2]: 7.32
pIC50 [3]: 5.92

Cc1nc2ccccc2n1CC(=O)N1C[C@H](F)C[C@H]1C(=O)N[C@@H](c1ccccc1)c1ccc(C2(C)CC2)c(F)c1 [Compound 566, (2S,4R)-4-fluoro-N-[(S)-[3-fluoro-4-(1-methylcyclopropyl)phenyl](phenyl)methyl]-1-[2-(2-methyl-1H-1,3-benzodiazol-1-yl)acetyl]pyrrolidine-2-carboxamide]
pIC50 [1]: < 4.00
pIC50 [2]: 7.34
pIC50 [3]: 6.11

Cn1c(=O)n(CC(=O)N2C[C@H](F)C[C@H]2C(=O)N[C@@H](c2ccccc2)c2ccc(C3(C)CC3)c(F)c2)c2ccccc21 [Compound 568, (2S,4R)-4-fluoro-N-[(S)-[3-fluoro-4-(1-methylcyclopropyl)phenyl](phenyl)methyl]-1-[2-(3-methyl-2-oxo-2,3-dihydro-1H-1,3-benzodiazol-1-yl)acetyl]pyrrolidine-2-carboxamide]
pIC50 [1]: 4.03
pIC50 [2]: 7.05
pIC50 [3]: 6.02

Cn1c(=O)ccn(CC(=O)N2C[C@H](F)C[C@H]2C(=O)N[C@@H](c2ccccc2)c2ccc(C3(C)CC3)c(F)c2)c1=O [Compound 569, (2S,4R)-4-fluoro-N-[(S)-[3-fluoro-4-(1-methylcyclopropyl)phenyl](phenyl)methyl]-1-[2-(3-methyl-2,4-dioxo-1,2,3,4-tetrahydropyrimidin-1-yl)acetyl]pyrrolidine-2-carboxamide]
pIC50 [1]: < 4.00
pIC50 [2]: 7.18
pIC50 [3]: 6.02
